One may read the pIC50 as the IC50 on a negative log10 scale, so that one unit is a factor of ten.

The values that follow come from patent publication US20050277586A1, “Peptide chemically modified with polyethylene glycol” (priority 2002, published 2005).

Data set [1] in a line: Measurement of turbidity in BSA (absorbance at 600 nm). Conditions: 1% BSA, peptide 50 μM. In kind it is physicochemical. The procedure:
The solutions were evaluated for their absorbance at a wavelength of 600 nm by using a spectrophotometer (DU640, manufactured by Beckman).

In data set [2] the target is phosphatidyl serine (binding of human Factor VIII). The experiment in a line: Affinity for phosphatidyl serine (EIA, inhibition of human Factor VIII binding). The settings on record: in the presence of 5% BSA, human Factor VIII 1 μg/mL. The procedure: The specific affinity of the peptide for phosphatidyl serine was evaluated by measuring activity of the peptide for inhibiting the binding of the human Factor VIII to phosphatidyl serine by using human Factor VIII which is known to bind to phosphatidyl serine but not to phosphatidyl choline in the presence of serum albumin. To be more specific, 100 μL of ethanol solution containing 10 μg/mL of phospholipids at a phosphatidyl serine (manufactured by SIGMA): phosphatidyl choline (manufactured by SIGMA) ratio of 3:7 was added to the wells of a 96 well plate (Immulon I, manufactured by Dynatech), and exsiccated by using a centrifugal evaporator (EC-95C, manufactured by Sakuma Seisakusho) at 40° C. for 40 minutes. 200 μL each of TBS (10 mM Tris-HCl (pH 7.4) containing 1% bovine serum albumin (BSA Fraction V, hereinafter referred to as BSA, manufactured by Seikagaku Corporation) and 0.9% (W/V) NaCl solution were added to each well, and the wells were blocked by allowing the plate to stand at 37° C. for 2.5 hours. After washing the plate with water, 100 μL of TBS solution supplemented with 5% BSA mixed with human Factor VIII (manufactured by American Diagnostica) at a final concentration 1 μg/mL and the peptide of predetermined dose prepared in Example 1 was added to each well, and the reaction was allowed to take place at 4° C. for 24 hours.
After the completion of the reaction, the human Factor VIII that became bound to the phosphatidyl serine was measured by enzyme immunoassay (EIA) in accordance with the general procedure described in a book (“Enzyme Immunoassay (3rd ed.)”, Eiji Ishikawa et al., Igaku-Shoin, 1987). To be more specific, the measurement was conducted by using anti-human Factor VIII mouse monoclonal antibody (ESH8, manufactured by American Diagnostica) for the primary antibody, horseradish peroxidase-labeled anti-mouse IgG antibody (P0260, manufactured by Daco) for the secondary antibody, and tetramethylbenzidine for the chromogenic substrate, and measuring the absorption at a wavelength of 450 nm by using a reference wavelength of 630 nm on a spectrophotometer (NJ-2100, manufactured by Intermed).
Intensity of the affinity of the peptide for the phosphatidyl serine was evaluated by using the value obtained by subtracting the absorption of the well having no human Factor VIII added thereto from the absorption of the well having only the human Factor VIII added thereto as the control value (100%), and designating the peptide concentration at which the value 0.5 was obtained when the value obtained by subtracting the absorption of the well having only the peptide added thereto from the absorption of the well having a mixture of the human Factor VIII and the peptide added thereto were divided by the control value as the IC50 value, and evaluating the intensity to be ++ when the IC50 value was up to 1 μM, and + when the intensity was more than 1 μM but not more than 10 μM. It is to be noted that the specific affinity was evaluated to be none when the intensity was 10 μM or more.

The subject of a further data set is Vero cell. The experiment in a line: Luciferase-expressing plasmid introduction into Vero cell. In kind it is cell-based, monkey. The text has this: A cell line established from monkey kidney (Vero cell) and a human bladder cancer cell (T24 cell) purchased from American Type Culture Collection (ATCC) and human lung cancer cell (A549 cell) purchased from Dainippon Pharmaceutical were inoculated on a 24 well culture plate (manufactured by NALGEN NUNC) at 1×10^5 cells/well. Vero cell and A549 cell were cultivated in DMEM (manufactured by Life Technologies Oriental) supplemented with 10% fetal bovine serum (hereinafter referred to as FBS, manufactured by NICHIREI), and T24 cell was cultivated in McCoy's 5a (manufactured by Life Technologies Oriental) supplemented with 10% FBS in 5% CO2 atmosphere at 37° C. for 24 hours. […] The luciferase activity expressed in the cell was then measured by the method instructed in luciferase assay system (manufactured by Promega). […]
20 μL of this cell lysate and 100 μL of the Luciferase Assay Reagent II attached to the kit was added to a fluorescence-measuring plate (Microlite™ 1 plate, manufactured by Dynatech), and after mixing, fluorescence was measured for 1 second by using a multilabel counter (ARVO™ SY1420 MULTILABEL COUNTER, manufactured by Wallac Beltold. […]

pIC50: −log10 of the molar value.

With “TRYLRIHPRSWVHQIALRLRYLRIHPRSWVHQIALRS [SEQ ID NO: 1]”, the “OD 600” value in data set [1] is listed as 0.03. In addition, in data set [2], the pIC50 was more than 6.00. Also, in the data set on Vero cell, the Luciferase activity is on record as 2.5 × 10^6 cps/mg protein.
